Paper PMC12345137 (mBio, 2025)
Where two headings read alike, the source gives them in different places. Positions of bridges follow the written chain, without caps; N, C: chain ends. Residues, ends and D or L forms follow the SMILES beside them.

Columns and labels:
SA AgrC-IV [1] = biological target: T1, SA AgrC-IV (Staphylococcus aureus, UniProt Q309Z2); assay: β-Lactamase assay, reporter strain RN10829 (P2-agrA:P3-blaZ) with pagrC-IV; type: cell-based; settings: 100 nM cognate AIP; ± SEM; -b = no inhibition recorded at the highest AIP concentration tested; -a = only partial inhibition observed; this study (curves in Fig. S22)
Method in brief: (§1)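 S. aureus RN10829 P2-agrA:P3-blaZ reporter carrying a plasmid for the matching wild-type AgrC, grown in TSB to OD600 0.35–0.40. Cells met peptides (10 μM–10 pM) plus cognate AIP at 100 nM for 1 h at 37°C, then nitrocefin (33.3 μg/mL) turnover was read at OD486 for 10 min; IC50 from linear rates.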

S. aureus (SA) agr-IV = settings: b-lactamase, cited from earlier work
SA AgrC-III [2] = biological target: T2, SA AgrC-III (Staphylococcus aureus, UniProt O33590); assay: β-Lactamase assay, reporter strain RN10829 (P2-agrA:P3-blaZ) with pagrC-III; type: cell-based
Method in brief: as §1

S. aureus (SA) agr-III [3] = settings: b-lactamase, cited from earlier work
S. aureus (SA) agr-I = settings: b-lactamase, cited from earlier work
SA AgrC-I [4] = biological target: T3, SA AgrC-I (Staphylococcus aureus, UniProt O07911); assay: β-Lactamase assay, reporter strain RN10829 (P2-agrA:P3-blaZ) with pagrC-I; type: cell-based
Excerpt: The β-lactamase reporter strain RN10829 (P2-agrA:P3-blaZ) ([62]), with pagrC-I ([63]), pagrC-II, pagrC-III, or pagrC-IV ([11]), substituting the native agr locus with a chromosomal integration of P2-agrA and P3-blaZ and a plasmid from which a wild-type variant of the corresponding AgrC is expressed, was used to assess inhibition and activation of the AgrC receptor via β-lactamase activity in response to varying concentrations of the QS modulating peptides. Overnight cultures of the reporter strains in TSB medium were diluted 1:250 in fresh TSB medium and grown to OD600 = 0.35–0.40 (early exponential phase) at 37°C. Peptide solutions (10 μL) in 1:10 serial dilutions from DMSO stock solutions (1 mM) in TSB medium (final concentrations = 10 μM–10 pM) were added to each well of a clear 96-well plate as well as solutions (10 μL) of cognate AIP (final concentration = 100 nM) in TSB medium followed by 80 μL of bacterial cells. […] The 96-well plates were incubated at 37°C shaking at 200 rpm for 1 h and immediately frozen down at −80°C to minimize growth during nitrocefin treatment. Next, the 96-well plates were thawed, and OD600 values were determined using a plate reader followed by the addition of 50 μL of nitrocefin solution to the wells (final concentration = 33.3 μg/mL). β-Lactamase activity was monitored at OD486 every 20 s for 10 min at 37°C using a plate-reader. Linear nitrocefin conversion rates were plotted to obtain IC50 values by non-linear regression with variable slope using GraphPad Prism 10.4 software. Assays were performed at least as duplicate determinations in biological triplicate.

SA AgrC-II [5] = biological target: T4, SA AgrC-II (Staphylococcus aureus, UniProt O33587); assay: β-Lactamase assay, reporter strain RN10829 (P2-agrA:P3-blaZ) with pagrC-II; type: cell-based
Method in brief: as §1

S. aureus (SA) agr-II [6] = settings: b-lactamase, cited from earlier work
SA AgrC-IV [7] = biological target: T1, SA AgrC-IV; settings: ± SEM, determined previously, ref (1), cited from earlier work; for IC50: 100 nM cognate AIP, -b = no inhibition recorded at the highest AIP concentration tested, read-out: IC50, SA AgrC-IV, b-lactamase assay
S. aureus (SA) agr-II [8] = settings: fluorescence; ref (5); cited from earlier work
[9] = test system: S. epidermidis (SE) agr-I; set-up: method as in ref (9) (a number printed in a supplementary file, which may have a reference list of its own: not looked up in the article's list); settings: HPLC d-toxin, ref (9); cited from earlier work
S. aureus (SA) agr-III [10] = test system: S. aureus (SA) agr-III; set-up: method as in ref (5) (a number printed in a supplementary file, which may have a reference list of its own: not looked up in the article's list); settings: hemolysis; ref (5); cited from earlier work
S. aureus (SA) agr-III [11] = settings: fluorescence; ref (5); cited from earlier work
SA AgrC-III [12] = biological target: T2, SA AgrC-III; settings: 100 nM cognate AIP, ± SEM, determined previously, ref (1), cited from earlier work
S. aureus (SA) agr-II [13] = test system: S. aureus (SA) agr-II; set-up: method as in ref (5) (a number printed in a supplementary file, which may have a reference list of its own: not looked up in the article's list); settings: hemolysis; ref (5); cited from earlier work
[14] = test system: S. epidermidis (SE) agr-I; settings: fluorescence; ref (11); cited from earlier work
SA AgrC-II [15] = biological target: T4, SA AgrC-II; settings: 100 nM cognate AIP; ± SEM; -b = no inhibition recorded at the highest AIP concentration tested; determined previously; ref (1); read-out: IC50, SA AgrC-II, b-lactamase assay; cited from earlier work
SA AgrC-I [16] = biological target: T3, SA AgrC-I; settings: ± SEM; determined previously; ref (1); read-out: EC50, SA AgrC-I, b-lactamase assay; cited from earlier work
S. aureus agr-II = S. aureus agr-II (Staphylococcus aureus, UniProt O33587); assay: cell-based; settings: fluorescent reporter strain; peptides tested at 1000, 50, 2.5, 0.125 nM or in dose-response
Method in brief: (§2)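 Staphylococcal agr reporters were grown with peptide for 22–24 h at 37°C. Background-corrected fluorescence per OD600 was expressed as a percentage of untreated control, and IC50 was obtained by variable-slope regression.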

S. lugdunensis agr-I = S. lugdunensis agr-I (Staphylococcus lugdunensis, UniProt Q8VSW5); assay: cell-based; settings: fluorescent reporter strain; peptides tested at 1000, 50, 2.5, 0.125 nM or in dose-response
Method in brief: as §2

S. aureus agr-III = S. aureus agr-III (Staphylococcus aureus, UniProt O33590); assay: cell-based; settings: fluorescent reporter strain; peptides tested at 1000, 50, 2.5, 0.125 nM or in dose-response
Method in brief: as §2

S. epidermidis agr-I = S. epidermidis agr-I (Staphylococcus epidermidis, UniProt Q5HMY3); assay: cell-based; type: cell-based; settings: fluorescent reporter strain; peptides tested at 1000, 50, 2.5, 0.125 nM or in dose-response
Method: (§3) Peptides were evaluated for the ability to interfere with agr-mediated quorum sensing in S. aureus (AH1677, AH430, AH1747, and AH1872 for agr-I–IV, respectively) ([40]) using reporter strains expressing yellow fluorescent protein (YFP) upon agr activation. Interference with agr-mediated quorum sensing in S. epidermidis (AH3408, AH3623, and AH3409 for agr-I–III, respectively) ([45]), and S. lugdunensis (AH4031 for agr-I) ([37]) was evaluated using reporter strains expressing superfolder green fluorescent protein (sGFP) upon agr activation. Overnight cultures of the reporter strains were grown in TSB medium containing chloramphenicol (CAM, 10 μg/mL for S. aureus) or erythromycin (ERM, 10 μg/mL of S. epidermidis and S. lugdunensis) and diluted 1:100 in fresh TSB medium containing the same antibiotic. Assays were performed in sterile black 96-well plates with a clear bottom. […] DMSO stock solutions of peptides (1 mM) were diluted in TSB media and added (15 μL) in technical triplicate to the 96-well plate, followed by diluted bacterial overnight cultures (135 μL). […] Wells containing 150 μL TSB medium were used to measure background fluorescence. The 96-well plates were incubated in a humidified incubator at 37°C shaking at 1,000 rpm for 22–24 h and fluorescence (for GFP: excitation 479 nm, emission 520 nm; for YFP: excitation 500 nm, emission 541 nm; automatic gain), and OD600 values were subsequently measured using a plate reader. Background fluorescence was subtracted from all wells and further normalized to the corresponding OD600 value of the respective wells. The average fluorescence of control wells was used as a relative measure for 100% activation of the agr-circuit, and bar graphs were generated using GraphPad Prism 10.4 software. All assays were performed in at least a biological duplicate.
(§4) Overnight cultures of the reporter strains were grown in TSB medium containing chloramphenicol (CAM, 10 μg/mL for S. aureus) or erythromycin (ERM, 10 μg/mL of S. epidermidis and S. lugdunensis) and diluted 1:100 in fresh TSB medium containing the same antibiotic. Assays were performed in sterile black 96-well plates with clear bottoms. Peptide solutions (15 μL) in 1:5 serial dilutions from DMSO stock solutions (1 mM) in TSB medium were added to the 96-well plate in technical duplicate followed by diluted bacterial overnight cultures (135 μL). […] Wells containing 150 μL TSB medium were used to measure background fluorescence. The 96-well plates were incubated in a humidified incubator at 37°C shaking at 1,000 rpm for 22–24 h and fluorescence (for GFP: excitation 479 nm, emission 520 nm; for YFP: excitation 500 nm, emission 541 nm; automatic gain), and OD600 values were subsequently measured using a plate reader. Background fluorescence was subtracted from all wells and further normalized to the corresponding OD600 value of the respective wells. The average fluorescence of control wells was used as a relative measure for 100% activation of the agr-circuit. Relative agr activity was plotted to obtain IC50 values by non-linear regression with variable slope using GraphPad Prism 10.4 software. All assays were performed in biological triplicate.

S. aureus agr-I = S. aureus agr-I (Staphylococcus aureus, UniProt O07911); assay: Fluorescence reporter assay for agr interference, screening and IC50 (AH1677, P3-YFP); type: cell-based; settings: fluorescent reporter strain; peptides tested at 1000, 50, 2.5, 0.125 nM or in dose-response
Method: as §3, §4

S. epidermidis agr-III = S. epidermidis agr-III (Staphylococcus epidermidis, UniProt Q8VSX2); assay: cell-based; type: cell-based; settings: fluorescent reporter strain; peptides tested at 1000, 50, 2.5, 0.125 nM or in dose-response
Method in brief: as §2

S. epidermidis agr-II = S. epidermidis agr-II (Staphylococcus epidermidis, UniProt Q8VSX5); assay: cell-based; type: cell-based; settings: fluorescent reporter strain; peptides tested at 1000, 50, 2.5, 0.125 nM or in dose-response
Method in brief: as §2

S. aureus agr-IV = S. aureus agr-IV (Staphylococcus aureus, UniProt Q309Z2); assay: cell-based; type: cell-based; settings: fluorescent reporter strain; peptides tested at 1000, 50, 2.5, 0.125 nM or in dose-response
Method in brief: as §2

[17] = -b = no inhibition recorded at the highest AIP concentration tested, read-out: IC50, SA AgrC-III, b-lactamase assay

T1 sequence (Q309Z2 entry or part of it): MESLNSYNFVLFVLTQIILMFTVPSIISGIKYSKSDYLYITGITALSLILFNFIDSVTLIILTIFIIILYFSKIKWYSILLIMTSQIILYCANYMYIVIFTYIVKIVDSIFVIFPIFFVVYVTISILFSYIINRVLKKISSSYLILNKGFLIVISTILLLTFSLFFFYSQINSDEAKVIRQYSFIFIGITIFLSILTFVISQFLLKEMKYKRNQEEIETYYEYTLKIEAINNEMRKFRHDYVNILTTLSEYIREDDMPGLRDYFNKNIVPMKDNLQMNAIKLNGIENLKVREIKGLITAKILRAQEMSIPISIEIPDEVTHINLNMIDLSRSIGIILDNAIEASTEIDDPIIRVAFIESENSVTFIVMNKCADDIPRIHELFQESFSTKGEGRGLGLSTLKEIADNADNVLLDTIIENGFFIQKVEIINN
T4 sequence (O33587 entry or part of it): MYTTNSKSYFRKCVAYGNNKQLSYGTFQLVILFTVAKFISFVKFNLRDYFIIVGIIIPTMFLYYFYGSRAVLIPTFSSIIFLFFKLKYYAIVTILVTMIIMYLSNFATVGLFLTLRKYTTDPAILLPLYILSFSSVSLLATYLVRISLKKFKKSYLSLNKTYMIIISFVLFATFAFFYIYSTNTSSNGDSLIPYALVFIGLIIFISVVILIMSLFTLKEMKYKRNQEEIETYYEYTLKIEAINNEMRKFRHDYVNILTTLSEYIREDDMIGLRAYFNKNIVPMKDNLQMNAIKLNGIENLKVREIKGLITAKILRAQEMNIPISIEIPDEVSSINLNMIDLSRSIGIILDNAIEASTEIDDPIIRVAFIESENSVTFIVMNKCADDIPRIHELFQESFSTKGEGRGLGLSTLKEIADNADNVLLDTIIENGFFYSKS
T2 sequence (O33590 entry or part of it): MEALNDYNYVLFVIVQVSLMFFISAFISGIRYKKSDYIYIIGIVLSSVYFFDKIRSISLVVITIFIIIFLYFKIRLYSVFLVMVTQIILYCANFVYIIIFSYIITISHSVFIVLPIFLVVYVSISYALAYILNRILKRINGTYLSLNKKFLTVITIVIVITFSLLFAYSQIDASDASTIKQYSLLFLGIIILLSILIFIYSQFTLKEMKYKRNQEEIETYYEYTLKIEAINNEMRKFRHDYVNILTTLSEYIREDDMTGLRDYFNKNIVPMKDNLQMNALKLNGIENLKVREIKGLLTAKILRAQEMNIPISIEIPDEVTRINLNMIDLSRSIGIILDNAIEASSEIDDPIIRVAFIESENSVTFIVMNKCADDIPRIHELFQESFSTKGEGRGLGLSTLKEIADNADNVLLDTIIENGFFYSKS
Sequence of S. aureus agr-IV (Q309Z2 entry or part of it): as the sequence (Q309Z2 entry or part of it) above
Sequence of S. epidermidis agr-III (Q8VSX2 entry or part of it): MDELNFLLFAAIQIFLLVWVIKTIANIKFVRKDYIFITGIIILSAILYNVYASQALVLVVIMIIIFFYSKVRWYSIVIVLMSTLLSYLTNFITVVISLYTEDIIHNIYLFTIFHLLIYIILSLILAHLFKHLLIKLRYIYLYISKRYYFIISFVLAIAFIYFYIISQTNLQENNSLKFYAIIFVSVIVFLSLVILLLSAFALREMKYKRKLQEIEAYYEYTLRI
Sequence of S. epidermidis agr-I (Q5HMY3 entry or part of it): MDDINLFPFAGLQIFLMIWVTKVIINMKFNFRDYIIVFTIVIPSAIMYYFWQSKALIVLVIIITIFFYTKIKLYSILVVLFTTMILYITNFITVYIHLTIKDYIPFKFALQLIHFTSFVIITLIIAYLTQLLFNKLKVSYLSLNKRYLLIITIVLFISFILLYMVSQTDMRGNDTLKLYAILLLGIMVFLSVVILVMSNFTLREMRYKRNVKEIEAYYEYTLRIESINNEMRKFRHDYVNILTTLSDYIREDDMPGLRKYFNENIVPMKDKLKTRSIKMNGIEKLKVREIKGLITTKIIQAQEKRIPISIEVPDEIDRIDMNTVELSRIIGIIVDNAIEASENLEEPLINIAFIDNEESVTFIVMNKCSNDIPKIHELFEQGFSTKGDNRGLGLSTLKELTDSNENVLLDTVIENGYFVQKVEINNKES
Sequence of S. aureus agr-II (O33587 entry or part of it): as the sequence (O33587 entry or part of it) above
Sequence of S. lugdunensis agr-I (Q8VSW5 entry or part of it): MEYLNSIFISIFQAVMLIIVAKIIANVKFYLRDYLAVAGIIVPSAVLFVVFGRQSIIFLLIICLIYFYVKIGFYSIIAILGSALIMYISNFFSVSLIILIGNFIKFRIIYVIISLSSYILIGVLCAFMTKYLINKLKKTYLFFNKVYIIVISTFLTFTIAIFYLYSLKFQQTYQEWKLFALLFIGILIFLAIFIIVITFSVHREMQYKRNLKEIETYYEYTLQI
Sequence of S. aureus agr-III (O33590 entry or part of it): as the sequence (O33590 entry or part of it) above
T3 sequence (O07911 entry or part of it): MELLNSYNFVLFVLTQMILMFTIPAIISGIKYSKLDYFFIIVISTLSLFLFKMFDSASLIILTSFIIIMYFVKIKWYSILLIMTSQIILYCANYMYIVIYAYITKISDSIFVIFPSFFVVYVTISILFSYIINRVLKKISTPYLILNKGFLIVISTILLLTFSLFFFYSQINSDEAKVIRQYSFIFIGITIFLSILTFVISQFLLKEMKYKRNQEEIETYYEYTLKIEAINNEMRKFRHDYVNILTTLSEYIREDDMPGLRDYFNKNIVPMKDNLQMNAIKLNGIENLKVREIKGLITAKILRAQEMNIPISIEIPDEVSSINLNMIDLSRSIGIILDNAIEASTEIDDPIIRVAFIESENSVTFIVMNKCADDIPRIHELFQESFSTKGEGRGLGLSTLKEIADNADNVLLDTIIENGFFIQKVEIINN
Sequence of S. aureus agr-I (O07911 entry or part of it): as above
Sequence of S. epidermidis agr-II (Q8VSX5 entry or part of it): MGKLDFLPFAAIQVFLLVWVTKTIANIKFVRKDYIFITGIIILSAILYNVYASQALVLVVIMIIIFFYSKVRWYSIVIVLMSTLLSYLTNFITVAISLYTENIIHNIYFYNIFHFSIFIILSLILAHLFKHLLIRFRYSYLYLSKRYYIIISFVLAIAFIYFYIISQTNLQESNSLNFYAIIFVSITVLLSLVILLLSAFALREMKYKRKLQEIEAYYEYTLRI

Compound | IC50 (SA AgrC-II [15]) | IC50 (SA AgrC-IV [7]) | QS interaction in words (inhibition / activation), S. aureus agr-II (S. aureus agr-II) | QS interaction in words (inhibition / activation), S. lugdunensis agr-I (S. lugdunensis agr-I) | QS interaction in words (inhibition / activation), S. aureus agr-III (S. aureus agr-III) | QS interaction in words (inhibition / activation), S. epidermidis agr-I (S. epidermidis agr-I) | QS interaction in words (inhibition / activation), S. aureus agr-I (S. aureus agr-I) | IC50 (SA AgrC-III [12]; [17]) | QS interaction in words (inhibition / activation), S. epidermidis agr-III (S. epidermidis agr-III) | QS interaction in words (inhibition / activation), S. epidermidis agr-II (S. epidermidis agr-II) | QS interaction in words (inhibition / activation), S. aureus agr-IV (S. aureus agr-IV) | further results
CC[C@H](C)[C@H](NC(=O)[C@@H](N)CCCNC(=N)N)C(=O)N1CCC[C@H]1C(=O)N[C@H](C(=O)N[C@H]1COC(=O)[C@H](Cc2ccccc2)NC(=O)[C@H](Cc2ccccc2)NC(=O)CNC(=O)[C@H]([C@@H](C)O)NC1=O)[C@@H](C)O [compound 31, S. intermedius AIP-I] (H-RIPTSTGFF; ester 5-C) | – | – | – | – | – | – | – | – | – | – | – | IC50, SA AgrC-IV, b-lactamase assay (SA AgrC-IV [1]): -b; inhibition from supernatant, SA agr-IV (S. aureus (SA) agr-IV; from supernatant, ref (16)): 10–60%; IC50 (SA AgrC-III [2]): 104 ± 20 nM; inhibition from supernatant, SA agr-III (S. aureus (SA) agr-III [3]; from supernatant, ref (16)): 60–100%; inhibition from supernatant, SA agr-I (S. aureus (SA) agr-I; from supernatant, ref (16)): 80–100%; IC50 (SA AgrC-I [4]): 87 ± 20 nM; IC50 (SA AgrC-II [5]): > 1000 nM; inhibition from supernatant, SA agr-II (S. aureus (SA) agr-II [6]; from supernatant, ref (16)): 40–90%
S. aureus AIP-IV [compound 4] | 47 ± 9 nM | – | – | – | – | – | – | – | – | – | – | EC50 (SA AgrC-IV [7]; read-out: EC50, SA AgrC-IV, b-lactamase assay): 2.6 ± 0.2 nM; EC50 (S. aureus (SA) agr-IV; ref (4)): 13 nM; EC50 (S. aureus (SA) agr-IV; ref (7)): 7.9 nM; IC50 (S. aureus (SA) agr-II [8]): 0.37 nM; IC50 (S. aureus (SA) agr-III [3]; ref (4)): 1 nM; inhibition at 1000 nM, SE agr-I [9]: 40%; EC50 (S. aureus (SA) agr-I; ref (4)): 62 nM; IC50 (S. aureus (SA) agr-III [10]): 1.49 nM; IC50 (S. aureus (SA) agr-III [11]): 0.46 nM; IC50 (SA AgrC-III [12]; only partial inhibition observed, read-out: IC50, SA AgrC-III, b-lactamase assay, only partial inhibition observed (footnote a)): 9.8 ± 0.2 nM; IC50 (S. aureus (SA) agr-II [13]): 0.09 nM; IC50 [14]: > 1000 nM; IC50 (S. aureus (SA) agr-II [6]; ref (4)): 4 nM; EC50 (SA AgrC-I [16]): 59 ± 2 nM
S. chromogenes AIP-I [compound 27] | 200 ± 13 nM | 350 ± 85 nM | potently inhibited | only weakly inhibited | potently inhibited | potently inhibited | potently inhibited | 60 ± 13 nM | potently inhibited | potently inhibited | potently inhibited | –
S. hyicus AIP-I [compound 26] | 350 ± 90 nM | 180 ± 33 nM | potently inhibited | only weakly inhibited | potently inhibited | potently inhibited | potently inhibited | 4 ± 0.8 nM | potently inhibited | potently inhibited | potently inhibited | –
